# Test results published in US20110118275A1, “OXAZOLO[4,5-c]PYRIDINE SUBSTITUTED PYRAZINE” (ASTRAZENECA AB, priority 2009, published 2011).
# How the values were obtained:
# [1] = target: T1, recombinant human GSK3β (Homo sapiens, UniProt P49841); experiment: Determination of GSK3β activity in Scintillation Proximity Assay; format: biochemical; settings: Km of ATP 3 μM used to calculate Ki; 1 μmol/L ATP; read-out: mean GSKβ Ki value
# T1 construct: purchased Dundee University, UK
# Description: Determination of GSK3β activity in Scintillation Proximity Assay.
# The inhibition experiments were carried out in duplicate with 10 concentrations of the inhibitor in 384 well clear-bottom microtitre plates. A biotinylated peptide substrate (Biotin-Ala-Ala-Glu-Glu-Leu-Asp-Ser-Arg-Ala-Gly-Ser(PO3H2)-Pro-Gln-Leu (AstraZeneca, Lund)), was added at a final concentration of 1 μmol/L in an assay buffer (pH 7.0) containing 0.6 mU recombinant human GSK3β (Dundee University, UK), (˜5 nmol/L active enzyme), 10 mmol/L morpholinepropanesulfonic acid (MOPS), 0.3 mmol/L EDTA, 0.01% (v/v) (3-mercaptoethanol, 0.003% (w/v) polyethylene 23 lauryl ether (Brij 35), 0.4% glycerol and 0.02 mg bovine serum albumine (BSA) and preincubated for 10 minutes. The reaction was initiated by the addition of 0.06 μCi [γ-33P]ATP (Amersham, UK) and unlabelled ATP in 30 mmol/L Mg(Ac)2 to a final concentration of 1 μmol/L ATP. The final assay volume was 15 μL. Blank controls without peptide substrate were used. After incubation for 15 min at room temperature, the reaction was terminated by the to addition of stop solution containing 1.3 mmol/L EDTA, 13 μmol/L ATP, 0.02% Triton™X-100 and 0.15 mg streptavidin coated SPA beads. After a 5 minutes centrifugation at 2000 rpm, the radioactivity was measured in a liquid scintillation counter (1450 MicroBeta Trilux, Perkin Elmer, Finnland). […]
# [2] = target: T2, recombinant Axl tyrosine kinase (Homo sapiens, UniProt P30530); experiment: In vitro Axl kinase assay (AlphaScreen); format: biochemical; settings: Ki calculated from IC50, Km for ATP 0.2 μM
# T2 construct: GST (N); made in house; host or cells: SF126 insect cells
# T2 sequence (P30530 473-894): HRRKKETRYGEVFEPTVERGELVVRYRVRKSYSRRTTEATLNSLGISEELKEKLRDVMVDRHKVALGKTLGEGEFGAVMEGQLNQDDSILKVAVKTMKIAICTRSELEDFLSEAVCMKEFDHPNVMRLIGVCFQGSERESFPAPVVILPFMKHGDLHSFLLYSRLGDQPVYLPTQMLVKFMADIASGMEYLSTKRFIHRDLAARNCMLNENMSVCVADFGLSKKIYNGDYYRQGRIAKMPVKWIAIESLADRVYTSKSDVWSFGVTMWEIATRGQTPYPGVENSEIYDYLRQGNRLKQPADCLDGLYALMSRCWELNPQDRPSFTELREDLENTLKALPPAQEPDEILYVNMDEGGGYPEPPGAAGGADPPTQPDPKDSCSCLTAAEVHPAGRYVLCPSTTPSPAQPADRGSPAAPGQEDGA
# Description: Determination of the In Vitro Axl Kinase Assay.
# The following assays can be used to measure the effects of the compounds of the present invention as inhibitors of Axl tyrosine kinase enzyme, as inhibitors in vitro of the phosphorylation of Axl expressed on NCI H1299 lung large cell carcinoma cells. The assay used AlphaScreen technology (Gray et al., Analytical Biochemistry, 2003, 313: 234-245) to determine the ability of test compounds to inhibit phosphorylation by recombinant Axl tyrosine kinase.
# N-terminal GST-Axl kinase domain encompassing amino acids 473 to 894 of Axl (GenBank Accession No NM_021913) was expressed in […] insect cells and purified using the GST epitope tag, using standard purification techniques.
# Test compounds were prepared as 10 mM stock solutions in dimethylsulphoxide (DMSO) and diluted in DMSO as required. […]
# Each reaction was stopped by the addition of 5 μl of a mixture of 500 mM EDTA, 3 mg/ml bovine serum albumin (BSA) and 20 mM Tris-HCl pH 7.4 buffer containing 40 ng/μl AlphaScreen Streptavidin donor and anti-p-Tyr-100 acceptor beads (Perkin Elmer, Catalogue No. 6760620M). The resultant signals arising from laser light excitation at 680 nm were read using a Packard Envision instrument. […]
# [3] = Hygroscopicity by Dynamic Vapor Sorption (DVS); format: physicochemical; settings: 25° C.
# Description: Description of the Dynamic Vapor Sorption (DVS) Method Used
# The weight change over time as a function of relative humidity (RH) at 25° C. was measured in a DVS Advantage, equipped with a SMS ultrabalance using DVS Advantage Control Software Version 1.2.0.21, from Surface Measurement Systems, London, UK.
# Carrier gas was nitrogen 200 ml/minute. The sample amount was circa 10 mg. The equilibrium criteria, for each step, was set to 0.002%/minute with DMDT Window 5 minutes, DMDT Min Time 10 minutes and DMDT Max Time 360 minutes as defined in the Control Software. DMDT uses the percentage rate of change of mass with time (dm/dt) to determine whether a sample has come to equilibrium.
# DMDT Window (min): The time window, over which a straight line is fitted to the mass data in order to calculate a value of dm/dt.
# DMDT Min Time (min): The time that the measured dm/dt must satisfy the specified dm/dt criteria before switching to the next Method Stage.
# DMDT Max Time (min): The maximum time a Method Stage will run in dm/dt mode before switching to the next Method Stage—regardless of whether the dm/dt criterion has been satisfied.
# The sample was initially dried at 0% RH and the water vapor sorption was measured as weight gain after stepwise increase to 10, 20, 30, 40, 50, 60, 70, 80, 90 and 95% relative humidity. After stepwise drying using the same relative humidities in reverse order down to 0% RH a second sorption curve was obtained.
# T1 sequence (P49841 whole entry): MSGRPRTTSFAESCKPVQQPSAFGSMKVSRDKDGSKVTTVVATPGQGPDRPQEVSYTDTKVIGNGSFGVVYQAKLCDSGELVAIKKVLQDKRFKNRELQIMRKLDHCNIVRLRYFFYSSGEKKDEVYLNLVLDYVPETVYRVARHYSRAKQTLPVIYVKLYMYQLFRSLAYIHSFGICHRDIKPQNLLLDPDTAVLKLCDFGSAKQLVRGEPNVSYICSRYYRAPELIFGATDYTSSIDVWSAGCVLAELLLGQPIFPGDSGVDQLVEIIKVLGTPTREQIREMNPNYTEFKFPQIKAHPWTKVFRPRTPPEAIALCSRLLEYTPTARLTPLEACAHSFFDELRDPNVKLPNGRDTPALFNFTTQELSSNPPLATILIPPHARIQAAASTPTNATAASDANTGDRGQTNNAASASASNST
smiles,measurement,setting,value
"Nc1ncc(-c2ccc(C(=O)N3CCNCC3)cc2)nc1-c1nc2cnccc2o1 [Example 14, (4-(5-Amino-6-(oxazolo[4,5-c]pyridin-2-yl)pyrazin-2-yl)phenyl)(piperazin-1-yl)methanone]",Ki,[1],3.2 nM
"CN1CCN(C(=O)c2ccc(-c3cnc(N)c(-c4nc5cnccc5o4)n3)cc2)CC1 [Example 1, (4-(5-Amino-6-(oxazolo[4,5-c]pyridin-2-yl)pyrazin-2-yl)phenyl)(4-methylpiperazin-1-yl)methanone]",Ki,[2],113 nM
same,Ki,[1],2.3 nM
same,Average weight gain,[3]; 0% RH,0.0%
same,Weight gain calculated as molar equivalents of water,[3]; 0% RH,0.0 molar equivalents of water
same,Weight gain first sorption curve,[3]; 0% RH,0.00%
same,Weight gain second sorption curve,[3]; 0% RH,0.00%
same,Average weight gain,[3]; 10% RH,0.1%
same,Weight gain calculated as molar equivalents of water,[3]; 10% RH,0.0 molar equivalents of water
same,Weight gain first sorption curve,[3]; 10% RH,0.12%
same,Weight gain second sorption curve,[3]; 10% RH,0.14%
same,Average weight gain,[3]; 20% RH,2.4%
same,Weight gain calculated as molar equivalents of water,[3]; 20% RH,0.5 molar equivalents of water
same,Weight gain first sorption curve,[3]; 20% RH,2.34%
same,Weight gain second sorption curve,[3]; 20% RH,2.41%
same,Average weight gain,[3]; 30% RH,3.1%
same,Weight gain calculated as molar equivalents of water,[3]; 30% RH,0.7 molar equivalents of water
same,Weight gain first sorption curve,[3]; 30% RH,3.09%
same,Weight gain second sorption curve,[3]; 30% RH,3.14%
same,Average weight gain,[3]; 60% RH,4.7%
same,Weight gain calculated as molar equivalents of water,[3]; 60% RH,1.1 molar equivalents of water
same,Weight gain first sorption curve,[3]; 60% RH,4.72%
same,Weight gain second sorption curve,[3]; 60% RH,4.65%
same,Average weight gain,[3]; 90% RH,9.2%
same,Weight gain calculated as molar equivalents of water,[3]; 90% RH,2.1 molar equivalents of water
same,Weight gain first sorption curve,[3]; 90% RH,9.16%
same,Weight gain second sorption curve,[3]; 90% RH,9.19%
